# Key:
# physchem = details: pH 2.7
# Description: The LC-MS determination in the acidic range is effected at pH 2.7 with 0.1% aqueous formic acid and acetonitrile (contains 0.1% formic acid) as eluents; linear gradient from 10% acetonitrile to 95% acetonitrile. • ^[b] The LC-MS determination in the neutral range is effected at pH 7.8 using 0.001 molar aqueous ammonium hydrogencarbonate solution and acetonitrile as eluents; linear gradient from 10% acetonitrile to 95% acetonitrile.
# The calibration is effected with unbranched alkan-2-ones (having 3 to 16 carbon atoms) with known log P values (log P values determined on the basis of the retention times by linear interpolation between two successive alkanones).
# Phytophthora infestans = assay type: in vivo, Phytophthora infestans on young tomato plants; details: protective, tomato plants, active ingredient concentration 100 ppm, evaluation 7 days after inoculation; 0% = control, 100% = no infection
Compound,chromatographic logP (physchem),Eff. % (Phytophthora infestans)
"COC(C)(OC)C(CC(O)c1ccccc1OCC#C[Si](C)(C)C)=NO (stereo not drawn) [1-hydroxyl-4,4-dimethoxy-1-(2-{[3-(trimethylsilyl)prop-2-yn-1-yl]oxy}phenyl)pentan-3-one oxime]",3.19,
"CC(C)=NOCC(=O)N1CCC(c2nc(-c3cc(-c4ccccc4C=O)on3)cs2)CC1 [I-8, 2-{3-[2-(1-{[(Propan-2-ylideneamino)oxy]acetyl}piperidin-4-yl)-1,3-thiazol-4-yl]-1,2-oxazol-5-yl}benzaldehyde]",2.45,89%
"CC(C)=NOCC(=O)N1CCC(c2nc(C3=NOC(c4ccccc4OS(C)(=O)=O)C3)cs2)CC1 (stereo not drawn) [I-12, 2-{3-[2-(1-{[(Propan-2-ylideneamino)oxy]acetyl}piperidin-4-yl)-1,3-thiazol-4-yl]-4,5-dihydro-1,2-oxazol-5-yl}phenyl methanesulphonate]",2.36,
"C#CCOc1ccccc1C1CC(C(C)=O)=NO1 (stereo not drawn) [VIIIa-a-81, 1-[5-(2-{[prop-2-yn-1-yl]oxy}phenyl)-4,5-dihydro-1,2-oxazol-3-yl]ethanone]",4.41,
"CS(=O)(=O)Oc1cc(C(F)(F)F)ccc1C1CC(C(=O)CCl)=NO1 (stereo not drawn) [VIIa-a-143, 2-[3-(Chloroacetyl)-4,5-dihydro-1,2-oxazol-5-yl]-5-(trifluoromethyl)phenyl methanesulphonate]",3.25,
"CN(C)CC(=O)N1CCC(c2nc(C3=NOC(c4ccccc4OS(C)(=O)=O)C3)cs2)CC1 (stereo not drawn) [X-1, 2-(3-{2-[1-(N,N-Dimethylglycyl)piperidin-4-yl]-1,3-thiazol-4-yl}-4,5-dihydro-1,2-oxazol-5-yl)phenyl methanesulphonate]",1.48,
"CC(C)(C)[Si](C)(C)OCC(=O)N1CCC(c2nc(C3=NOC(c4ccccc4OS(C)(=O)=O)C3)cs2)CC1 (stereo not drawn) [X-2, 2-(3-{2-[1-({[tert-butyl(dimethyl)silyl]oxy}acetyl)piperidin-4-yl]-1,3-thiazol-4-yl}-4,5-dihydro-1,2-oxazol-5-yl)phenyl methanesulphonate]",4.14,
"CC(=O)OCC(=O)N1CCC(c2nc(C3=NOC(c4ccccc4OS(C)(=O)=O)C3)cs2)CC1 (stereo not drawn) [X-3, 2-{4-[4-(5-{2-[(Methylsulphonyl)oxy]phenyl}-4,5-dihydro-1,2-oxazol-3-yl)-1,3-thiazol-2-yl]piperidin-1-yl}-2-oxoethyl acetate]",2.18,
"CC(C)(C)OC(=O)N1CCC(c2nc(C3=NOC(c4ccc(C(F)(F)F)cc4OS(C)(=O)=O)C3)cs2)CC1 (stereo not drawn) [XVI-143, tert-Butyl 4-[4-(5-{2-[(methylsulphonyl)oxy]-4-(trifluoromethyl)phenyl}-4,5-dihydro-1,2-oxazol-3-yl)-1,3-thiazol-2-yl]piperidine-1-carboxylate]",4.36,
"CS(=O)(=O)Oc1ccccc1C1CC(c2csc(C3CCN(C(=O)CO)CC3)n2)=NO1 (stereo not drawn) [XXVIIa-142, 2-{3-[2-(1-glycoloylpiperidin-4-yl)-1,3-thiazol-4-yl]-4,5-dihydro-1,2-oxazol-5-yl}phenyl methanesulphonate]",1.88,
"CS(=O)(=O)Oc1ccccc1C1CC(c2csc(C3CCN(C(=O)CCl)CC3)n2)=NO1 (stereo not drawn) [Xc-a-142, 2-(3-{2-[1-(Chloroacetyl)piperidin-4-yl]-1,3-thiazol-4-yl}-4,5-dihydro-1,2-oxazol-5-yl)phenyl methanesulphonate]",2.42,
